Results taken from patent publication EP1222921B1, “Pharmaceutical compositions of tizoxanide and/or nitazoxanide” (Romark Laboratories, L.C., priority 1997, dated 1998).
Read-outs that look alike come from different tables or passages of the source.

Columns and labels:
[1] = system: MDBKF5D2 cell monolayers; format: cell-based; details: cattle
Protocol: The drug was incubated on the monolayers at 37°C and 8% CO2. At 24 hours (trial 1) and 48 hours (trial 2), MTS (Owen's solution) the PMS were added to each well at concentrations of 333 µg/ml and 25 µM respectively. The plate was returned to the incubator in the dark to develop for two hours. At two hours, 100 µl of each supernatant was transferred to a new microtiter plate and read in the ELISA reader at 490nm. Results were recorded and analyzed. Percent toxicity was calculated by subtracting the mean optical density (OD) of the drug supernatants from the mean optical density (OD) of the medium control supernatants (no drug), dividing by the OD of the medium control and multiplying by 100. (OD medium - OD drug)/(OD medium)x 100 [formula]

[2] = system: S. mansoni; details: posttreatment positive egg-counts; report by Abaza et al.; cited from earlier work
[3] = system: Cryptosporidium parvum; test: Preliminary clinical trial in AIDS patients with chronic cryptosporidial diarrhea; format: in vivo; details: of 16 evaluable by the eighth week, oral 500 to 2000 mg daily
Protocol: In a preliminary clinical trial, 30 AIDS patients with chronic cryptosporidial diarrhea were treated with oral nitazoxanide from 500 to 2000 mg daily. […] Twenty-eight people completed two or more weeks of therapy and 16 of those were evaluable for a therapeutic response by the eighth week of treatment. […] Six patients met both clinical and parasitological response criteria for benefit. Patients who received higher daily doses of drug for longer periods of time were more likely to have a positive response.

[4] = system: early mature (10-week/old) F. gigantica; test: Experimentally infected rabbits, early mature flukes; format: in vivo, Fasciola gigantica
Protocol: Nitazoxanide was tested against immature and mature Fasciola gigantica in experimentally infected rabbits. Fasciola gigantica encysted metacercariae (EMC) were collected on cellophane sheet after 28-35 days from infection of L. calludi snails by Fasciola gigantica miracidium using the technique described by […] snails were exposed daily to artificial light, for 30 minutes, in clean dechlorinated tap water. The resulting encysted […]) were preserved at 4°C in a refrigerator for 5 to 8 days under the surface of water until they were used to infect experimental animals. Forty (40) Boscat rabbits, weighting 1.5 to 2 kg each, were included in the study and allocated to two treatment groups of 20 animals. […] Ten animals from Group 2 received 35 mg of nitazoxanide, morning and evening, for 7 consecutive days 10 weeks after their infection at the mature stage of the parasite. The 10 remaining animals in Group 2 were kept as untreated controls. All animals were fed with dry ration until the end of the experiment. Seven days after administration of the last dose of nitazoxanide, all rabbits from each group were sacrificed. The surface of the liver was examined for the presence of necrotic migrating furrows especially at the immature stage of the parasite cycle. These necrotic areas were examined using two surgical needles in order to extract the juvenile migrating flukes according to the technique described by El-Bahy. The livers were sliced in small pieces especially around the migrating furrows and macerated under a microscope in order to extract the existing flukes. The abdominal cavity and the visceral surfaces were washed with warm water. The water was then collected, sieved and examined for identification of juvenile flukes. All the collected parasites as well as parts of them were counted in both treated and untreated animal in both Groups 1 and 2. […] The efficacy of nitazoxanide was calculated by using the formula indicated below: % efficacy(a - b)/(a)x 100 [formula] Where: • a = the number of flukes recovered from feces in the control animals • b = the number of flukes recovered from feces in the treated animals.

[5] = system: C. parvum oocysts; test: Intact C. parvum oocyst assay (Example III), immunofluorescence; format: cell-based, Cryptosporidium parvum; details: for Parasite - Mean parasite count/field (12 fields analyzed) / %Inhib - Percent inhibitation of parasite infection: 48 hr.; for %Inhib - Percent inhibitation of parasite infection: listed as NTZ
Protocol: Each concentration of nitazoxanide and the media controls contained 0.025% DMSO as a constant. The experiment used a cell culture of MDBKF5D2 Cells grown in 7 mm chambers, and as Cryptosporidium parvum: GCH1 oocysts, 5 X 10^4 per well, and was conducted to compare paromomycin (positive control) against nitazoxanide (experimental drug). […] 5 x 104 C. parvum oocysts per well are incubated in the pre-mentioned concentrations of nitazoxanide at 37°C (8% CO2) on confluent MDBKF5D2 cell monolayers. The level of infection in each well was determined and computer analyzed by an immunofluorescence assay at 48 hours. […] (Medium control count - Drug test count)/(Medium control count)x 100 [formula] Conc. - µg/ml; Parasite - Mean parasite count/field (12 fields analyzed); %Inhib - Percent inhibitation of parasite infection; % Tox- Percent toxicity to cells by the drug.

[6] = system: Fasciola hepatica; test: In vitro culture of mature flukes
Protocol: The in vitro efficacy of nitazoxanide and desacetyl-nitazoxanide was tested against Fasciola hepatica. Mature F. hepatica were recovered from the bile ducts of 3 calf livers condemned due to fasciolosis at the Louisiana Veterinary Medical Diagnostic Laboratory at the Hardy's Meat […], Bunkie, LA. Flukes were washed in sterile saline for 1 hour and transferred to sterile saline or RPMI (pH 7.4) for an additional 3 hours. Flukes were then held in sterile RPMI-rabbit serum (50:50 v/v) or sterile RPMI (pH 7.4) overnight at 37°C with 5% CO2. In vitro culture (37°C, 5% CO2) was done according to a modification of the method of Ibarra and Jenkins ([…]. 70:655-661, 1984). […] Only flukes that had normal activity and morphology were used. […] Two control flukes were included in each replicate, […] and one in unmedicated culture media […]. Flukes were examined for the effects of drug treatment as evidenced by death, motility disturbances or morpholgic changes as compared to untreated control flukes, using a backlighted panel and a lighted 3X magnifying lens.

[7] = mean of 10 rabbits, 70 mg/day for 7 consecutive days

## CC(=O)Oc1ccccc1C(=O)Nc1ncc([N+](=O)[O-])s1 [Nitazoxanide, 2-(acetolyloxy)-N-(5-nitro 2-thiazoly) benzamide]
[1]; 24 h, 0.1 µg/ml
  Percent Toxicity: 19.3%
[1]; 24 h, 1 µg/ml
  Percent Toxicity: 8.3%
[1]; 24 h, 10 µg/ml
  Percent Toxicity: 65.1%
[1]; 24 h, 100 µg/ml
  Percent Toxicity: 88.1%
[1]; 48 h, 0.02 µg/ml
  Percent Toxicity: 21.23%
[1]; 48 h, 0.2 µg/ml
  Percent Toxicity: 16.56%
[1]; 48 h, 2 µg/ml
  Percent Toxicity: 24.93%
[1]; 48 h, 20 µg/ml
  Percent Toxicity: 92.87%
[2]
  efficacy in patients: not effective
[3]
  individuals with a marked reduction or eradication of the parasite in the stool: 10
  patients who met both clinical and parasitological response criteria: Six
  people with the organism becoming undetectable: four
  persons with a 50 percent or greater reduction in daily bowel movement frequency: 12
[4]; 70 mg/day dose for 7 consecutive days
  overall efficacy: completely effective
[4]; individual rabbits No. 1-10, 35 mg morning and evening for 7 consecutive days, 10 weeks after infection
  No. of flukes extracted from liver of Treated Rabbits: 0.0
[4]; individual rabbits No. 1-10 versus untreated control, 35 mg morning and evening for 7 consecutive days
  Efficacy %: 100%
[4]; [7]
  Efficacy %, Mean (reduction): 100%
  No. of flukes extracted from liver of Treated Rabbits, Mean: 0.0
[5]; Conc 0.01 µg/ml, 0.025% DMSO
  Parasite - Mean parasite count/field (12 fields analyzed): 714.33
[5]; Conc 0.1 µg/ml, 0.025% DMSO
  Parasite - Mean parasite count/field (12 fields analyzed): 643.42
[5]; Conc 1 µg/ml, 0.025% DMSO
  Parasite - Mean parasite count/field (12 fields analyzed): 39.67
  %Inhib - Percent inhibitation of parasite infection: 93.69%
[5]; Conc 10 µg/ml, 0.025% DMSO
  Parasite - Mean parasite count/field (12 fields analyzed): 11.75
  %Inhib - Percent inhibitation of parasite infection: 98.13%
[5]; Cryptosporidium parvum, 48 h, Conc 0.01 µg/ml, 0.025% DMSO, read-out: %Inhib - Percent inhibitation of parasite infection
  inhibition at 0.01 µg/mL: ≤ 0%
[5]; Cryptosporidium parvum, 48 h, Conc 0.1 µg/ml, 0.025% DMSO, read-out: %Inhib - Percent inhibitation of parasite infection
  inhibition at 0.1 µg/mL: ≤ 0%
[5]; Cryptosporidium parvum, 48 h, Conc 1 µg/ml, 0.025% DMSO, read-out: %Inhib - Percent inhibitation of parasite infection
  inhibition at 1 µg/mL: 94%
[5]; Cryptosporidium parvum, 48 h, Conc 10 µg/ml, 0.025% DMSO, read-out: %Inhib - Percent inhibitation of parasite infection
  inhibition at 10 µg/mL: 98%
[5]; in vitro against Cryptosporidium parvum
  lowest concentration giving more than 90% of inhibition: 1 µg/mL
[6]; 1 µg treatment
  effects on flukes (death, motility disturbances): one fluke died by hour 16, three by hour 41 and five by hour 74; 3 flukes remained active at hour 91 and one fluke had activity at hour 115
[6]; 3 µg treatment
  effects on flukes (death, motility disturbances): By 23 hours, only 2 sluggish flukes in the 3 µg group remained alive; these were dead by hour 41
[6]; 5 µg treatment
  effects on flukes (death, motility disturbances): only 3 flukes were active at hour 6 and none were active at 16 hours
[6]; 10 µg treatment
  effects on flukes (death, motility disturbances): only one fluke survived to 16 hours
[6]; 25 µg treatment
  effects on flukes (death, motility disturbances): all flukes were dead or moribund except one fluke at 1 hour in the 25 µg group it was dead at 3 hour
[6]; 50 µg treatment
  effects on flukes (death, motility disturbances): all flukes were dead or moribund
[6]; 100 µg treatment
  effects on flukes (death, motility disturbances): all flukes were dead or moribund
